Test system: MV-4-11 cells
Experiment: Gene expression microarray analysis (Affymetrix PrimeView) and GSEA
Type: cell-based, human
Set-up: RFU PODN (11730768_x_at) / Fold change /veh PODN (11730768_x_at) / RFU LINC00158 (11744669_a_at) / Fold change /veh LINC00158 (11744669_a_at) / RFU DUSP10 (11751237_a_at) / Fold change /veh DUSP10 (11751237_a_at) / RFU ID3 (11757404_x_at) / Fold change /veh ID3 (11757404_x_at) / RFU PLEKHG5 (11737974_s_at) / Fold change /veh PLEKHG5 (11737974_s_at) / RFU LRRC4B (11730491_at) / Fold change /veh LRRC4B (11730491_at) / RFU GIMAP4 (11747438_a_at) / Fold change /veh GIMAP4 (11747438_a_at) / RFU KRT8 (11758183_x_at) / Fold change /veh KRT8 (11758183_x_at) / RFU CNN1 (11734310_a_at) / Fold change /veh CNN1 (11734310_a_at) / RFU VPS37D (11726825_at) / Fold change /veh VPS37D (11726825_at) / RFU C10orf10 (11716522_x_at) / Fold change /veh C10orf10 (11716522_x_at) / RFU KIR2DL2 /// KIR2DL4 /// KIR2DL5A /// KIR2DL5B /// KIR2DS1 /// KIR2DS2 /// KIR2DS3 /// KIR2DS4 /// KIR3DL3 /// KIR3DL3 /// KIR3DS1 (11738374_at) / Fold change /veh KIR2DL2 /// KIR2DL4 /// KIR2DL5A /// KIR2DL5B /// KIR2DS1 /// KIR2DS2 /// KIR2DS3 /// KIR2DS4 /// KIR3DL3 /// KIR3DL3 /// KIR3DS1 (11738374_at) / RFU C1QL1 (11718748_at) / Fold change /veh C1QL1 (11718748_at) / RFU TMPRSS4 (11747572_a_at) / Fold change /veh TMPRSS4 (11747572_a_at) / RFU HAMP (11756126_x_at) / Fold change /veh HAMP (11756126_x_at) / RFU RNFT2 (11725882_a_at) / Fold change /veh RNFT2 (11725882_a_at) / RFU NR4A2 (11747474_a_at) / Fold change /veh NR4A2 (11747474_a_at) / RFU ABCC12 (11746883_a_at) / Fold change /veh ABCC12 (11746883_a_at) / RFU TMEM136 (11760407_x_at) / Fold change /veh TMEM136 (11760407_x_at) / RFU CLDN22 /// WWC2 (11732394_at) / Fold change /veh CLDN22 /// WWC2 (11732394_at) / RFU HLA-DPB1 (11760878_x_at) / Fold change /veh HLA-DPB1 (11760878_x_at) / RFU SPINT1 (11716480_a_at) / Fold change /veh SPINT1 (11716480_a_at) / RFU GAP43 (11754022_s_at) / Fold change /veh GAP43 (11754022_s_at) / RFU A4GNT (11735810_at) / Fold change /veh A4GNT (11735810_at) / RFU PRB3 (11715151_x_at) / Fold change /veh PRB3 (11715151_x_at) / RFU TUBB4B (11761932_at) / Fold change /veh TUBB4B (11761932_at) / RFU CAPN14 (11732068_a_at) / Fold change /veh CAPN14 (11732068_a_at) / RFU TMCC2 (11721928_a_at) / Fold change /veh TMCC2 (11721928_a_at) / RFU IRGQ (11745062_a_at) / Fold change /veh IRGQ (11745062_a_at) / RFU FAM174B (11720279_a_at) / Fold change /veh FAM174B (11720279_a_at) / RFU TMPRSS4 (11748680_a_at) / Fold change /veh TMPRSS4 (11748680_a_at) / RFU FAM212B (11763350_a_at) / Fold change /veh FAM212B (11763350_a_at) / RFU PLEKHG5 (11743358_a_at) / Fold change /veh PLEKHG5 (11743358_a_at) / RFU ZSCAN30 (11745921_a_at) / Fold change /veh ZSCAN30 (11745921_a_at) / RFU CMKLR1 (11741424_a_at) / Fold change /veh CMKLR1 (11741424_a_at) / RFU LOC101060620 /// MAPK8IP1 (11723275_at) / Fold change /veh LOC101060620 /// MAPK8IP1 (11723275_at) / RFU SPTSSB (11747773_x_at) / Fold change /veh SPTSSB (11747773_x_at) / RFU PRSS12 (11739890_at) / Fold change /veh PRSS12 (11739890_at) / RFU BIN1 (11741810_x_at) / Fold change /veh BIN1 (11741810_x_at) / RFU WNT11 (11732464_a_at) / Fold change /veh WNT11 (11732464_a_at) / RFU C10orf10 (11716521_a_at) / Fold change /veh C10orf10 (11716521_a_at) / RFU C5orf56 (11738089_at) / Fold change /veh C5orf56 (11738089_at) / RFU CYB561 (11721691_x_at) / Fold change /veh CYB561 (11721691_x_at) / RFU ANKRD19P (11752326_a_at) / Fold change /veh ANKRD19P (11752326_a_at) / RFU OR2T12 /// OR2T33 /// OR2T8 (11738714_s_at) / Fold change /veh OR2T12 /// OR2T33 /// OR2T8 (11738714_s_at) / RFU VCAN (11748164_a_at) / Fold change /veh VCAN (11748164_a_at) / RFU JSRP1 (11732532_at) / Fold change /veh JSRP1 (11732532_at) / RFU KRTAP10-11 (11738290_x_at) / Fold change /veh KRTAP10-11 (11738290_x_at) / RFU MYO3A (11730013_a_at) / Fold change /veh MYO3A (11730013_a_at) / RFU EBF3 (11725865_a_at) / Fold change /veh EBF3 (11725865_a_at) / RFU CAMK2N1 (11719241_x_at) / Fold change /veh CAMK2N1 (11719241_x_at) / RFU C5orf56 (11738088_a_at) / Fold change /veh C5orf56 (11738088_a_at) / RFU OLFML3 (11715873_a_at) / Fold change /veh OLFML3 (11715873_a_at) / RFU LOC100653217 /// NTM (11731650_a_at) / Fold change /veh LOC100653217 /// NTM (11731650_a_at) / RFU MAPK11 (11762145_a_at) / Fold change /veh MAPK11 (11762145_a_at) / RFU FIZ1 (11724087_x_at) / Fold change /veh FIZ1 (11724087_x_at) / RFU OASL (11726364_x_at) / Fold change /veh OASL (11726364_x_at) / RFU SOX15 (11748057_x_at) / Fold change /veh SOX15 (11748057_x_at) / RFU CD79A (11719716_a_at) / Fold change /veh CD79A (11719716_a_at) / RFU HIST1H1D (11736915_at) / Fold change /veh HIST1H1D (11736915_at) / RFU CASKIN2 (11723855_a_at) / Fold change /veh CASKIN2 (11723855_a_at) / RFU LOC730098 (11760151_x_at) / Fold change /veh LOC730098 (11760151_x_at) / RFU OR4N2 (11742367_at) / Fold change /veh OR4N2 (11742367_at) / RFU PRRT2 (11749266_a_at) / Fold change /veh PRRT2 (11749266_a_at) / RFU SNX32 (11753110_a_at) / Fold change /veh SNX32 (11753110_a_at) / RFU CDHR5 (11726645_a_at) / Fold change /veh CDHR5 (11726645_a_at) / RFU RCAN1 (11760418_a_at) / Fold change /veh RCAN1 (11760418_a_at) / RFU FAM167A (11723789_a_at) / Fold change /veh FAM167A (11723789_a_at) / RFU FAM26E (11764081_at) / Fold change /veh FAM26E (11764081_at) / RFU ISYNA1 (11749810_s_at) / Fold change /veh ISYNA1 (11749810_s_at) / RFU ACY1 (11761880_at) / Fold change /veh ACY1 (11761880_at) / RFU 11764098_at / Fold change /veh 11764098_at / RFU SAMD14 (11745864_x_at) / Fold change /veh SAMD14 (11745864_x_at) / RFU NPB (11741838_a_at) / Fold change /veh NPB (11741838_a_at) / RFU TMPRSS6 (11731388_a_at) / Fold change /veh TMPRSS6 (11731388_a_at) / RFU KRTAP10-2 (11738614_at) / Fold change /veh KRTAP10-2 (11738614_at) / RFU ARHGAP8 /// PRR5-ARHGAP8 (11727945_x_at) / Fold change /veh ARHGAP8 /// PRR5-ARHGAP8 (11727945_x_at) / RFU KRTAP5-7 /// NADSYN1 (11734609_at) / Fold change /veh KRTAP5-7 /// NADSYN1 (11734609_at) / RFU RASL12 (11751679_a_at) / Fold change /veh RASL12 (11751679_a_at) / RFU CDKN2B (11736163_a_at) / Fold change /veh CDKN2B (11736163_a_at) / RFU PRF1 (11729649_at) / Fold change /veh PRF1 (11729649_at) / RFU, ZNF638 /// ZNF638-IT1 / Fold change vs veh, ZNF638 /// ZNF638-IT1 / RFU, PANK3 / Fold change vs veh, PANK3 / RFU, SH3YL1 / Fold change vs veh, SH3YL1 / RFU, ZEB2 / Fold change vs veh, ZEB2 / RFU, NRIP1 / Fold change vs veh, NRIP1 / RFU, PTTG1IP / Fold change vs veh, PTTG1IP / RFU, CAPN2 / Fold change vs veh, CAPN2 / RFU, MED14 / Fold change vs veh, MED14 / RFU, SNORA58 / Fold change vs veh, SNORA58 / RFU, C1orf63 / Fold change vs veh, C1orf63 / RFU, LRRFIP1 / Fold change vs veh, LRRFIP1 / RFU, NDUFAF7 / Fold change vs veh, NDUFAF7 / RFU, SLC12A2 / Fold change vs veh, SLC12A2 / RFU, IBTK / Fold change vs veh, IBTK / RFU, ESF1 / Fold change vs veh, ESF1 / Fold change vs veh, TMEM50B / RFU, TAOK1 / Fold change vs veh, TAOK1 / RFU, ACBD3 / Fold change vs veh, ACBD3 / RFU, TMA16 / Fold change vs veh, TMA16 / RFU, RWDD3 / Fold change vs veh, RWDD3 / RFU, BCAT1 / Fold change vs veh, BCAT1 / RFU, EDEM3 / Fold change vs veh, EDEM3 / RFU, TMEM33 / Fold change vs veh, TMEM33 / RFU, WDR75 / Fold change vs veh, WDR75 / RFU, AHCTF1 / Fold change vs veh, AHCTF1 / RFU, TFRC / Fold change vs veh, TFRC / RFU, ZDHHC17 / Fold change vs veh, ZDHHC17 / RFU, NOM1 / Fold change vs veh, NOM1 / RFU, ARL8B / Fold change vs veh, ARL8B / RFU, ZBTB11 / Fold change vs veh, ZBTB11 / RFU, TAMM41 / Fold change vs veh, TAMM41 / RFU, KIAA1704 /// LOC100996395 / Fold change vs veh, KIAA1704 /// LOC100996395 / RFU, ING1 / Fold change vs veh, ING1 / RFU, TRMT61B / Fold change vs veh, TRMT61B / RFU, FUBP3 / Fold change vs veh, FUBP3 / RFU, TP53 / Fold change vs veh, TP53 / RFU, TNKS2 / Fold change vs veh, TNKS2 / RFU, ZFP14 / Fold change vs veh, ZFP14 / RFU, ACTR2 / Fold change vs veh, ACTR2 / RFU, PPP3R1 / Fold change vs veh, PPP3R1 / RFU, PIK3R1 / Fold change vs veh, PIK3R1 / RFU, HNRNPA1 / Fold change vs veh, HNRNPA1 / RFU, RNF170 / Fold change vs veh, RNF170 / RFU, ZNF28 / Fold change vs veh, ZNF28 / RFU, RNGTT / Fold change vs veh, RNGTT / RFU, OGT / Fold change vs veh, OGT / RFU, BRD1 / Fold change vs veh, BRD1 / RFU, MARS / Fold change vs veh, MARS / RFU, ZNF655 / Fold change vs veh, ZNF655 / RFU, FAHD1 / Fold change vs veh, FAHD1 / RFU, BDP1 / Fold change vs veh, BDP1 / RFU, LRRCC1 / Fold change vs veh, LRRCC1 / RFU, ARID1A / Fold change vs veh, ARID1A / RFU, ZNF146 / Fold change vs veh, ZNF146 / RFU, ZNF330 / Fold change vs veh, ZNF330 / RFU, GPN3 / Fold change vs veh, GPN3 / RFU, C9orf123 / Fold change vs veh, C9orf123 / RFU, N4BP2L2 / Fold change vs veh, N4BP2L2 / RFU, ARFIP1 / Fold change vs veh, ARFIP1 / RFU, FAM179B / Fold change vs veh, FAM179B / RFU, BCL10 / Fold change vs veh, BCL10 / RFU, UHRF1BP1L / Fold change vs veh, UHRF1BP1L / RFU, BET1 / Fold change vs veh, BET1 / RFU, CNOT2 / Fold change vs veh, CNOT2 / RFU, ZNF268 / Fold change vs veh, ZNF268 / Fold change vs veh, ZNF507 / RFU, DGCR2 / Fold change vs veh, DGCR2 / RFU, WDSUB1 / Fold change vs veh, WDSUB1 / Fold change vs veh, HSP90B1 /// MIR3652 / RFU, ADSS / Fold change vs veh, ADSS / RFU, GK / Fold change vs veh, GK / RFU, ZNF148 / Fold change vs veh, ZNF148 / RFU, TAF9 / Fold change vs veh, TAF9 / RFU, SLC1A5 / Fold change vs veh, SLC1A5 / RFU, SLMO2 / Fold change vs veh, SLMO2 / RFU, ABCC4 / Fold change vs veh, ABCC4 / RFU, LOC101060439 /// RAP1B / Fold change vs veh, LOC101060439 /// RAP1B / RFU, RFX7 / Fold change vs veh, RFX7 / RFU, GTPBP10 / Fold change vs veh, GTPBP10 / RFU, CNEP1R1 / Fold change vs veh, CNEP1R1 / RFU, BIVM-ERCC5 /// ERCC5 / Fold change vs veh, BIVM-ERCC5 /// ERCC5 / RFU, ILF3 / Fold change vs veh, ILF3 / RFU 11762660_at / Fold change /veh 11762660_at / RFU VCAN (11757783_s_at) / Fold change /veh VCAN (11757783_s_at) / RFU DDX43 (11728927_at) / Fold change /veh DDX43 (11728927_at) / RFU KRT8 (11758188_x_at) / Fold change /veh KRT8 (11758188_x_at) / RFU NKD1 (11759106_at) / Fold change /veh NKD1 (11759106_at) / RFU SRD5A1 (11742802_a_at) / Fold change /veh SRD5A1 (11742802_a_at) / RFU TPSAB1 /// TPSB2 (11721975_s_at) / Fold change /veh TPSAB1 /// TPSB2 (11721975_s_at) / RFU GSTM3 (11746129_a_at) / Fold change /veh GSTM3 (11746129_a_at) / RFU IL23R (11737362_x_at) / Fold change /veh IL23R (11737362_x_at) / RFU TMEM51 (11727254_a_at) / Fold change /veh TMEM51 (11727254_a_at) / RFU PIWIL2 (11732686_x_at) / Fold change /veh PIWIL2 (11732686_x_at) / RFU ORM1 (11744905_x_at) / Fold change /veh ORM1 (11744905_x_at) / RFU CCDC152 (11743942_at) / Fold change /veh CCDC152 (11743942_at) / RFU ECM1 (11717891_a_at) / Fold change /veh ECM1 (11717891_a_at) / RFU IL23R (11748794_a_at) / Fold change /veh IL23R (11748794_a_at) / RFU TNFAIP8L3 (11732012_x_at) / Fold change /veh TNFAIP8L3 (11732012_x_at) / RFU MBOAT4 (11741988_at) / Fold change /veh MBOAT4 (11741988_at) / RFU 11764193_at / Fold change /veh 11764193_at / RFU TMEM53 (11763286_at) / Fold change /veh TMEM53 (11763286_at) / RFU MAGEB2 (11727129_at) / Fold change /veh MAGEB2 (11727129_at) / RFU TMEM200A (11744735_a_at) / Fold change /veh TMEM200A (11744735_a_at) / RFU CCDC152 (11751479_a_at) / Fold change /veh CCDC152 (11751479_a_at) / RFU FAM211A (11726209_a_at) / Fold change /veh FAM211A (11726209_a_at) / RFU RGS16 (11746705_a_at) / Fold change /veh RGS16 (11746705_a_at) / RFU VCAN (11755009_s_at) / Fold change /veh VCAN (11755009_s_at) / RFU RHOB (11743442_s_at) / Fold change /veh RHOB (11743442_s_at) / RFU RGS16 (11720943_a_at) / Fold change /veh RGS16 (11720943_a_at) / RFU RGS16 (11720944_at) / Fold change /veh RGS16 (11720944_at) / RFU, VPS4B / Fold change vs veh, VPS4B / RFU, CREB1 / Fold change vs veh, CREB1 / RFU, DNAJC13 / Fold change vs veh, DNAJC13 / RFU, GNAQ / Fold change vs veh, GNAQ / RFU, CDK5R1 / Fold change vs veh, CDK5R1 / RFU, ZRANB3 / Fold change vs veh, ZRANB3 / RFU, CUL4A / Fold change vs veh, CUL4A / RFU, CCNY / Fold change vs veh, CCNY / RFU, UFL1 / Fold change vs veh, UFL1 / RFU, COG3 / Fold change vs veh, COG3 / RFU, DIAPH2 / Fold change vs veh, DIAPH2 / RFU, SKA2 / Fold change vs veh, SKA2 / RFU, AFF3 / Fold change vs veh, AFF3 / RFU, LMF1 / Fold change vs veh, LMF1 / RFU, IPO11 / Fold change vs veh, IPO11 / RFU, DFFB / Fold change vs veh, DFFB / RFU, FOXP1 / Fold change vs veh, FOXP1 / RFU, CARD8 / Fold change vs veh, CARD8 / RFU, STRN3 / Fold change vs veh, STRN3 / RFU, ADK / Fold change vs veh, ADK / RFU, RASSF2 / Fold change vs veh, RASSF2 / RFU, WIPF1 / Fold change vs veh, WIPF1 / RFU, LARP1B / Fold change vs veh, LARP1B / RFU, RASA1 / Fold change vs veh, RASA1 / RFU, RB1 / Fold change vs veh, RB1 / RFU, PPFIA1 / Fold change vs veh, PPFIA1 / RFU, MAT2A / Fold change vs veh, MAT2A / RFU, CCT5 / Fold change vs veh, CCT5 / RFU, WDR92 / Fold change vs veh, WDR92 / RFU, CUX1 / Fold change vs veh, CUX1 / RFU, TTC7A / Fold change vs veh, TTC7A / RFU, TMEM135 / Fold change vs veh, TMEM135 / RFU, DEPTOR / Fold change vs veh, DEPTOR / RFU, CPM / Fold change vs veh, CPM / RFU, DNAJB6 / Fold change vs veh, DNAJB6 / RFU, CACNA2D3 / Fold change vs veh, CACNA2D3 / RFU, DTX4 / Fold change vs veh, DTX4 / RFU, TFCP2 / Fold change vs veh, TFCP2 / RFU, GMCL1 /// GMCL1P1 / Fold change vs veh, GMCL1 /// GMCL1P1 / RFU, AEBP2 / Fold change vs veh, AEBP2 / RFU, SNHG1 /// SNORD22 /// SNORD25 /// SNORD26 /// SNORD27 /// SNORD28 /// SNORD29 /// SNORD31 / Fold change vs veh, SNHG1 /// SNORD22 /// SNORD25 /// SNORD26 /// SNORD27 /// SNORD28 /// SNORD29 /// SNORD31 / Fold change (Aza/veh), C12orf56 (ProbeSet 11735607_a_at) / Fold change (ACY-1035/veh), C12orf56 (ProbeSet 11735607_a_at) / Fold change (Aza/veh), FGFR1OP (ProbeSet 11751329_s_at) / Fold change (ACY-1035/veh), FGFR1OP (ProbeSet 11751329_s_at) / Fold change (Aza/veh), VPS36 (ProbeSet 11739960_a_at) / Fold change (ACY-1035/veh), VPS36 (ProbeSet 11739960_a_at) / RFU SYPL1 (11715823_x_at) / Fold change /veh SYPL1 (11715823_x_at) / RFU IGFBP7 (11715501_s_at) / Fold change /veh IGFBP7 (11715501_s_at) / RFU REEP3 (11722064_at) / Fold change /veh REEP3 (11722064_at) / RFU IGLL1 (11728026_x_at) / Fold change /veh IGLL1 (11728026_x_at): dose or concentration left out as unconfirmed
Settings: ProbeSet 11759094_a_at; LIST D

Nc1ccc(-c2cccs2)cc1NC(=O)c1ccc2c(c1)cc(C1CC1)n2CCN1CCOCC1 [ACY-1035]
RFU, GNAQ: 492.28 RFU

From publication PMC5218480 (PLoS ONE, 2017)
